1 compound from paper PMC12019328, “Discovery of an ApoE4-targeted small-molecule SirT1 enhancer for the treatment of Alzheimer’s disease” (Scientific Reports, 2025) can be followed below.

Data set [1] is described as follows: Liver microsome stability. Type of data set: in vitro ADME. Conditions: pH 7.4; human liver microsomes 0.5 mg/mL, NADPH, 37 °C; read-out: Microsomal stability t1/2. On the procedure:
page 6: A03 DDL-214 Figure S3B. SirT1 protein levels in N2a-E4 cells after A03 and DDL-214 treatment. Compound treatment was done at 5 and 50 µM. SirT1 levels were measured by AlphaLISA followed and normalized to protein concentration DDL-218 Physiochemical Properties Physiochemical properties of DDL-218 are shown in Table S2. Brain Tissue Binding [fu,bound (%)] Brain tissue was homogenized in PBS (pH 7.4) (1: 3 weight(mg)/volume(µL)) and the protein concentration of was determined using the Micro BCA™ Protein Assay Kit (Thermo Fisher Scientific, Cat#23235). Brain homogenate was diluted to 20 mg/mL in PBS (pH 7.4) and added to Slide-A-Lyzer™ MINI Dialysis Devices, 10K MWCO dialysis cups (Thermo Fisher Scientific, Cat#PI88401) in 48-well plate containing PBS (500 µL; pH 7.4). 1 µL of 1 mM compound was added to the brain homogenate (Final Concentration: 2 µM compound, 0.5% DMSO) and incubated on a rocker for 4.5 hours at 37 °C. […] The % of the unbound drug (fu,bound) was calculated using the following equation: fu,bound = [normalized peak area in buffer side / normalized peak area in brain side] x 100 Liver Microsome Stability [t1/2 (min)] […] An aliquot (50 µL) of each supernatant was analyzed by LC-MS/MS. […] Aliquots (50 µL) of supernatant were analyzed by LC-MS/MS to create the standard curve. […]
In general terms: Liver microsomes are a subcellular fraction often used to study metabolism.

For data set [2], the system named is SirT1 promoter. Nature of the data set: ChIP analysis of SirT1 promoter occupancy in brain tissue of ApoE4-TR:5xFAD mice. Type of data set: in vivo. To be noted: vs Veh. On the procedure:
17-371) following manufacturer's instructions. Brain was frozen to -80C, then powdered on dry
ice and split for either RNA analysis or for the ChIP assay, approximately ~100mg powderized
tissue was fixed in formaldehyde. For cultured cells in vitro, cells were fixed in each well and
harvested by scraping. Samples were sonicated to break chromatin into 200-1000bp fragments
(according to previously optimized conditions), using a Epishear programmable sonicator (Active
Motif), and aliquots were subjected to immunoprecipitation with antibodies against either apoE4
(Novus), RNA Polymerase (supplied in the Ez-ChIP kit), or mouse IgG (isotype matched).
Immunoprecipitated chromatin was subjected to conditions that reversed the cross-links, and
DNA was purified. The immunoprecipitated DNA was measured for the level of immuno-captured
SirT1 gene promoter sequence using qPCR with PCR primers that bind flanking the SirT1 CLEAR
sequence. PCR produced an amplicon of 125bp with the CLEAR site near one end, the CLEAR
sequence is bold underlined in the following 125bp PCR amplicon:
PCR amplification Ct values for apoE4 and RNAP were normalized to the levels obtained for
IgG and further normalized to the level of input DNA. This level of immuno-captured DNA indicates
the level of apoE4 or RNAP occupancy of CLEAR site region of the SirT1 gene promoter.
Figure S7. SirT1 promoter binding by RNA polymerase and ApoE4. […]

As to `CC(N)C(=O)OC(C)(C)Cc1ccncc1` (stereo not drawn) [DDL-218], the half-life in data set [1] was above 140 min. Besides, in data set [2], the “ApoE4 binding to the SirT1 promoter” value was “lower, but the effect was not significant” and the “RNAP binding to the SirT1 promoter” value is given as “significantly increased”.
